Test results as given in paper PMC6600181, “Reversal of MK-801-Induced Disruptions in Social Interactions and Working Memory with Simultaneous Administration of LY487379 and VU152100 in Mice” (International Journal of Molecular Sciences, 2019).

Columns and labels:
MK-801-treated mice [1] = test: Novel object recognition test (MK-801-induced disruptions); type: in vivo, mice (male CD1); settings: for treatment of deficits in novel object recognition induced by prolonged MK-801: compounds acutely 24 h later, 30 min before test, LY487379 0.1, 0.5, 1 mg/kg, VU152100 0.1, 0.25, 1 mg/kg; for prevention of MK-801-induced disruptions in object recognition: acute, 30 min before acute MK-801
Description: (§1) Schedules of administration are presented graphically in Figure 1. […] Different vehicles were used throughout the study: (1) 0.9% NaCl, (2) 10% Tween 80 or (3) 10% Tween 80 containing 2% DMSO. Vehicles were administered to all animals (e.g., control mice, MK-801-treated mice) in the same schedule as drugs were administered to the drug-treated appropriate groups of mice.
(§2) Male CD1 mice (Charles River, Germany) weighing 20–25 g at the time of arrival were used in behavioural experiments. Animals were kept in standard laboratory cages T3 (265 × 420 × 180 mm, with an area of 825 cm^2), grouped at 10 mice per cage. Animals were kept under standard laboratory conditions (12:12 light:dark cycle, 21–22 °C) with free access to food and water. Animal welfare has been regularly controlled by a veterinarian and animal welfare committee. After 3–4 weeks of acclimatization and handling, the experiments began. Experimental groups consisted of 8 to 10 animals, depending on the procedure. Drugs were administered intraperitoneally (i.p.) at a volume of 10 mL/kg. Experimental assessments were performed by an observer who was blinded to treatment conditions. All procedures described herein were conducted in accordance with the European Communities Council Directive of 22 September 2010 (2010/63/EU) and Polish legislation acts concerning animal experimentation and were approved by the II Local Ethics Committee by the Institute of Pharmacology, Polish Academy of Sciences in Krakow (18/2019, 21.01.2019).
This procedure was adapted from Nilsson et al. and performed as described in a variety of our previous papers. Habituation, training and test trials were performed in a black plastic rectangular arena (40 × 30 × 35 cm) illuminated with a light intensity of 335 lux. During the habituation trial (2 consecutive days), each animal was allowed to explore the arena for 10 min. The next day, during the training trial (T1), mice were placed in the arena and were presented with two identical objects (red glass cylinder; 6.5 cm in diameter and 4.5 cm high) for 5 min. After 1 h, animals were placed back into the arena for a 5 min test trial, during which one of the previously presented familiar objects was replaced with a novel object (a transparent glass elongated sphere-like object with an orange cap; 5.5 cm in diameter and 8.5 cm high). Time spent exploring (i.e., sniffing or touching) the familiar (Tfamiliar) and novel (Tnovel) objects was measured by a trained observer, and the recognition index [%] was calculated for each mouse [(Tnovel – Tfamiliar)/(Tfamiliar + Tnovel)] * 100.

MK-801-treated mice [2] = test: Social interaction test (MK-801-induced disruptions); type: in vivo, mice (male CD1); settings: for treatment of deficits in social interactions induced by prolonged MK-801: compounds acutely 24 h later, 30 min before test, LY487379 0.25, 0.5, 1 mg/kg, VU152100 0.1, 0.25, 5 mg/kg; for prevention of MK-801-induced deficits in social interactions: acute, 30 min before acute MK-801
Description: as §1, §2
This procedure was adapted from de Moura Linck et al. and performed as described in our previous papers. Habituation and test trials were performed in a black plastic rectangular arena (40 × 30 × 35 cm) illuminated with a light intensity of 335 lux. During the habituation trial (2 consecutive days), each animal was allowed to explore the arena for 10 min. The test trial was conducted the following day, during which body-weight-matched mice (± 10% difference) from two different cages were placed into the arena for 10 min. Social interactions between the two mice were determined based on the total time spent participating in social behaviours, such as sniffing, genital investigation and chasing.

MK-801-treated mice [3] = test system: MK-801-treated mice; set-up: method as in PMID 30054675; settings: acute MK-801 model; cited from earlier work
MK-801-treated mice [4] = test system: MK-801-treated mice; set-up: method as in PMID 30054675; settings: acute MK-801 model; cited from earlier work; remark: listed apart in the source

For `COc1ccccc1Oc1ccc(N(Cc2cccnc2)S(=O)(=O)CC(F)(F)F)cc1` [LY487379], the “treatment of deficits in novel object recognition induced by prolonged MK-801” value (MK-801-treated mice [1]; MK-801 0.3 mg/kg for 7 days) was “treated the MK-801-induced deficits at all administered doses”, the “effect on learning abilities when given alone” value (MK-801-treated mice [1]; compound alone, without MK-801) was “no effect on learning abilities” and the “prevention of MK-801-induced disruptions in object recognition” value (MK-801-treated mice [1]; dose 0.5 mg/kg i.p.) was “ineffective”. The “prevention of MK-801-induced disruptions in object recognition” value (MK-801-treated mice [1]; doses of 1 and 3 mg/kg i.p.) was “prevented MK-801-induced disruptions in object recognition”, the “treatment of deficits in social interactions induced by prolonged MK-801” value (MK-801-treated mice [2]; MK-801 0.3 mg/kg for 7 days) was “treated MK-801-induced deficits at all administered doses” and the “effect on social behaviour when given alone” value (MK-801-treated mice [2]; compound alone, without MK-801) was “no effect on social behaviour”. The “prevention of MK-801-induced deficits in social interactions” value (MK-801-treated mice [2]; dose 0.5 mg/kg i.p.) was “ineffective” and the “prevention of MK-801-induced deficits in social interactions” value (MK-801-treated mice [2]; doses of 1 and 3 mg/kg i.p.) was “prevented the MK-801-induced deficits”.
With `C[C@]12N[C@H](Cc3ccccc31)c1ccccc12` [MK-801] the “induction of deficits in novel object recognition” value (MK-801-treated mice [1]; MK-801 0.3 mg/kg for 7 days, observed 24 h after the last administration) was “induced deficits in the novel object recognition paradigm” and the “induction of deficits in social interactions” value (MK-801-treated mice [2]; MK-801 0.3 mg/kg for 7 days, observed 24 h after the last injection) was “induced deficits in social interactions”.
For `COc1ccc(CNC(=O)c2sc3nc(C)cc(C)c3c2N)cc1` [VU152100], the “sub-effective dose in novel object recognition” value (MK-801-treated mice [3]) is given as 0.25 mg/kg, the “sub-effective dose in social interaction” value (MK-801-treated mice [4]) is given as 0.5 mg/kg and the “treatment of deficits in novel object recognition induced by prolonged MK-801” value (MK-801-treated mice [1]; MK-801 0.3 mg/kg for 7 days) is given as “treated the MK-801-induced deficits at all administered doses”. The “treatment of deficits in social interactions induced by prolonged MK-801” value (MK-801-treated mice [2]; MK-801 0.3 mg/kg for 7 days) was “treated MK-801-induced deficits at all administered doses”.
